# How the values were obtained:
# [1] = molecular target: GDP-bound NRAS wild-type protein (Homo sapiens, UniProt P01111); assay: Binding to NRAS by surface plasmon resonance (SPR), Single Cycle Kinetics; settings: KD ratio, GDP-bound NRAS wild-type vs GDP-bound KRAS wild-type, SPR
# [2] = molecular target: GDP-bound HRAS wild-type protein (Homo sapiens, UniProt P01112); assay: Binding to HRAS by surface plasmon resonance (SPR), Single Cycle Kinetics; settings: KD ratio, GDP-bound HRAS wild-type vs GDP-bound KRAS wild-type, SPR
# GDP-bound HRAS wild-type protein, sequence (P01112 whole entry): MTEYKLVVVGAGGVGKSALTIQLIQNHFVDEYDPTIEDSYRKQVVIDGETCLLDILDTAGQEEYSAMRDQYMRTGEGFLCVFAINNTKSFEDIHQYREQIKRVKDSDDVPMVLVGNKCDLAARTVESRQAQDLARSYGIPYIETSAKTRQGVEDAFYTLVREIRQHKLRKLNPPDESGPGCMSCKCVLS
# GDP-bound NRAS wild-type protein, sequence (P01111 whole entry): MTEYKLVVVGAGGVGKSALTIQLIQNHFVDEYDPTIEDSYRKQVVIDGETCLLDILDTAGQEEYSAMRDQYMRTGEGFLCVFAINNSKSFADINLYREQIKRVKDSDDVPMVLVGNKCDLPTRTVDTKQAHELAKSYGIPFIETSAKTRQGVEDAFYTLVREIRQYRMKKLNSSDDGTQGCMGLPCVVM
Compound,NRAS/KRAS (ratio of KD value with respect to NRAS to KD value with respect to KRAS) [1],HRAS/KRAS (ratio of KD value with respect to HRAS to KD value with respect to KRAS) [2]
CCO[C@@H]1C[C@H]2C(=O)NC3(CCC3)C(=O)N(C)[C@@H](C(C)(C)C)C(=O)N(C)[C@H](C(=O)N3CCOCC3)CC(=O)N(C)[C@@H](CC(C)C)C(=O)N[C@@H]([C@@H](C)CC)C(=O)N(C)CC(=O)N(C)[C@H]3CCCCN(C3=O)[C@@H](Cc3ccc(C(F)(F)F)cc3)C(=O)N(C)CC(=O)N[C@@H](CCc3cc(F)c(C(F)(F)F)c(F)c3)C(=O)N2C1 [PP0814],B (a compound having 3 or more and less than 10 is denoted as B),B (a compound having 3 or more and less than 10 is denoted as B)
CCO[C@@H]1C[C@H]2C(=O)NC3(CCC3)C(=O)N(C)[C@@H](C3CCCC3)C(=O)N(C)[C@H](C(=O)N3CCOCC3)CC(=O)N(C)[C@@H](CC(C)C)C(=O)N[C@@H]([C@H](C)CC)C(=O)N(C)CC(=O)N(C)[C@H]3CCCCCN(C3=O)[C@@H](Cc3ccc(C(F)(F)F)cc3)C(=O)N(C)CC(=O)N[C@@H](CCc3cc(F)c(C(F)(F)F)c(F)c3)C(=O)N2C1 [PP0815],B (a compound having 3 or more and less than 10 is denoted as B),B (a compound having 3 or more and less than 10 is denoted as B)
CCO[C@@H]1C[C@H]2C(=O)NC3(CCC3)C(=O)N(C)[C@@H](C3CCCC3)C(=O)N(C)[C@H](C(=O)N3CCOCC3)CC(=O)N(C)[C@@H](CC(C)C)C(=O)N[C@@H](C3CC(F)(F)C3)C(=O)N(C)CC(=O)N(C)[C@H]3CCCCCN(C3=O)[C@@H](Cc3ccc(C(F)(F)F)cc3)C(=O)N(C)CC(=O)N[C@@H](CCc3cc(F)c(C(F)(F)F)c(F)c3)C(=O)N2C1 [PP0816],A (a compound having 10 or more and less than 20 is denoted as A),B (a compound having 3 or more and less than 10 is denoted as B)
CC[C@H](C)[C@@H]1NC(=O)[C@H](CC(C)C)N(C)C(=O)C[C@@H](C(=O)N2CCOCC2)N(C)C(=O)[C@H](C2CCCC2)N(C)C(=O)C2(CCC2)NC(=O)[C@]2(C)CCCN2C(=O)[C@H](CCc2cc(F)c(C(F)(F)F)c(F)c2)NC(=O)CN(C)C(=O)[C@H](Cc2ccc(C(F)(F)F)cc2)N2CCCCC[C@@H](C2=O)N(C)C(=O)CN(C)C1=O [PP0817],A (a compound having 10 or more and less than 20 is denoted as A),B (a compound having 3 or more and less than 10 is denoted as B)
CC[C@H](C)[C@@H]1NC(=O)[C@H](CC(C)C)N(C)C(=O)C[C@@H](C(=O)N2CCOCC2)N(C)C(=O)[C@H](C2CCCC2)N(C)C(=O)C2(CCC2)NC(=O)[C@@H]2C[C@@H](C(F)(F)F)CN2C(=O)[C@H](CCc2cc(F)c(C(F)(F)F)c(F)c2)NC(=O)CN(C)C(=O)[C@H](Cc2ccc(C(F)(F)F)cc2)N2CCCCC[C@@H](C2=O)N(C)C(=O)CN(C)C1=O [PP0818],B (a compound having 3 or more and less than 10 is denoted as B),B (a compound having 3 or more and less than 10 is denoted as B)
CC[C@H](C)[C@@H]1NC(=O)[C@H](CC(C)C)N(C)C(=O)C[C@@H](C(=O)N2CCOCC2)N(C)C(=O)[C@H](C2CCCC2)N(C)C(=O)C2(CCC2)NC(=O)[C@@H]2[C@H]3C[C@H]3CN2C(=O)[C@H](CCc2cc(F)c(C(F)(F)F)c(F)c2)NC(=O)CN(C)C(=O)[C@H](Cc2ccc(C(F)(F)F)cc2)N2CCCCC[C@@H](C2=O)N(C)C(=O)CN(C)C1=O [PP0819],A (a compound having 10 or more and less than 20 is denoted as A),B (a compound having 3 or more and less than 10 is denoted as B)
CCO[C@@H]1C[C@H]2C(=O)NC3(CCC3)C(=O)N(C)[C@@H](C(CC)CC)C(=O)N(C)[C@H](C(=O)N3CCOCC3)CC(=O)N(C)[C@@H](CC(C)C)C(=O)N[C@@H]([C@@H](C)CC)C(=O)N(C)CC(=O)N(C)[C@H]3CCCCCN(C3=O)[C@@H](Cc3ccc(C(F)(F)F)cc3)C(=O)N(C)CC(=O)N[C@@H](CCc3cc(F)c(C(F)(F)F)c(F)c3)C(=O)N2C1 [PP0820],A (a compound having 10 or more and less than 20 is denoted as A),B (a compound having 3 or more and less than 10 is denoted as B)
CCO[C@@H]1C[C@H]2C(=O)NC3(CCC3)C(=O)N(C)[C@@H]([C@H](C)CC)C(=O)N(C)[C@H](C(=O)N3CCOCC3)CC(=O)N(C)[C@@H](CC(C)C)C(=O)N[C@@H]([C@@H](C)CC)C(=O)N(C)CC(=O)N(C)[C@H]3CCCCCN(C3=O)[C@@H](Cc3ccc(C(F)(F)F)cc3)C(=O)N(C)CC(=O)N[C@@H](CCc3cc(F)c(C(F)(F)F)c(F)c3)C(=O)N2C1 [PP0821],A (a compound having 10 or more and less than 20 is denoted as A),B (a compound having 3 or more and less than 10 is denoted as B)

# From patent publication US20250230193A1, “CYCLIC COMPOUND HAVING SELECTIVE KRAS INHIBITORY EFFECT ON HRAS AND NRAS” (CHUGAI SEIYAKU KABUSHIKI KAISHA, priority 2022, published 2025)
